# Measurements reported in patent publication US20110230472A1, “RING-FUSED AZOLE DERIVATIVE HAVING PI3K-INHIBITING ACTIVITY” (Shionogi & Co., Ltd., priority 2008, published 2011).
# Legend:
# [1] = target: T1, PI-3 kinase γ (Homo sapiens, UniProt P48736); test: PI3Kγ inhibitory activity, PI3-kinase HTRF assay (inhibition ratio); assay type: biochemical; conditions: 0.5 h; PI3Kγ, compound at 10 μM
# Method in brief: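 PI3Kγ preincubated 10 min with compound and PIP2 substrate (MgCl2, DTT), then ATP added for 30 min at room temperature. PIP3 detected by HTRF (665/620 nm ratio) after 18 h. Inhibition ratio at 50 or 10 μmol/L, normalised to no-compound and no-enzyme controls.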
# [2] = system: AKT phosphorylation in human monocyte-like cell line THP-1; test: AKT phosphorylation inhibitory activity in MCP-1-stimulated THP-1 cells (ELISA); assay type: cell-based; conditions: 1 μmol/L solution of each compound, MCP-1 stimulation, read-out: AKT phosphorylation inhibition ratio
# Experimental: (1) The AKT phosphorylation inhibitory activity of a compound was evaluated according to the following procedure. (2) Human monocyte-like cell line THP-1 was washed with RPMI-1640 media, incubated in the presence of 5% CO2 at 37° C. for 3 hours, washed with Hank's balanced salt solution (HBSS), adjusted to a cell concentration of 6.6×10^6/mL, and then used in an experiment. (3) 30 μL of the cell suspension and 60 μL of each compound solution containing 0.2% DMSO/HBSS were mixed and then preincubated at 37° C. for 5 minutes. 30 μL of HBSS containing 4 μg/mL of MCP-1 was added thereto and then incubated for 30 seconds at 37° C. (4) 30 μl of a cell lysate (20 mmol/L Tris-HCl (pH 7.5), 150 mmol/L NaCl, 1 mmol/L Na2EDTA, 1 mmol/L EGTA, 1% Triton, 2.5 mmol/L sodium pyrophosphate, 1 mmol/L β-glycerophosphate, 1 mmol/L Na3VO4, 1 μg/ml leupeptin, 50 nmol/L APMSF) was added thereto to lyse cells. (5) The amount of AKT phosphorylation in the cell lysate was measured by ELISA method. (6) Anti-phospho-Akt (Ser473) antibodies (clone 193H12, derived from a rabbit) were immobilized onto the solid phase of a micro well plate. 100 μL of the prepared cell lysate was added to the micro well plate, incubated for 2 hours at 37° C., and then washed four times with Phosphate Buffered Saline containing 0.05% Tween-20. (7) An anti-AKT1 antibody (clone 2H10, derived from a mouse) was added thereto, incubated for 1 hour at 37° C., washed similarly, and then reacted with an HRP-labeled anti-mouse IgG antibody. (8) After incubating at 37° C. for 30 minutes and then washing similarly, 100 μL of TMB (3,3′,5,5″-tetramethylbenzidine) was added thereto, followed by reacting at room temperature for 30 minutes. (9) 100 μL of 1 mol/L sulfuric acid was added to quench the color reaction and then the absorbance at 450 nm was measured. (10) A series of diluted cell lysates of a positive control (a sample in the absence of a compound) were used to prepare a calibration curve, the amount of AKT phosphorylation in a sample in the absence of MCP-1 was defined as 0% activity to calculate an inhibition ratio. The measurement was performed for a 1 μmol/L solution of each compound.
# [3] = system: Salmonella typhimurium TA98 line, TA100 line; test: FAT test (mutagenicity); set-up: key: When the mutagenicity is negative, the compound is shown as (−); When positive, the compound is shown as (+); conditions: TA98 and TA100 lines; non-metabolism-activation and metabolism-activation conditions
# Experimental: 20 μL of Salmonella enterica subsp. typhimurium (Salmonella typhimurium TA98 line, TA100 line) cryopreserved was inoculated to 10 mL of liquid nutrient medium (2.5% Oxoid nutrient broth No. 2) and then precultured at 37° C. for 10 hours with shaking. Regarding TA98 line, after 9 mL of a bacterial suspension was centrifuged (2000×g, 10 minutes) to remove the culture solution, the bacteria was suspended in 9 mL of Micro F buffer solution (K2HPO4: 3.5 g/L, KH2PO4: 1 g/L, (NH4)2SO4: 1 g/L, tri-sodium citric acid dihydrate: 0.25 g/L, MgSO4.7H2O: 0.1 g/L), and then added to 110 mL of Exposure media (Micro F buffer solution containing biotin: 8 μg/mL, histidine: 0.2 μg/mL, glucose: 8 mg/mL). Regarding TA 100 line, 120 mL of Exposure media was added to 3.16 mL of the bacterial suspension to prepare a test bacterial suspension. 12 μL of a solution of a test substance in DMSO (diluted eight times in a common ratio of 2 from the maximum dose of 50 mg/mL); 12 μL of DMSO as a negative control; 50 μg/mL 4-nitroquinoline-1-oxide solution in DMSO for TA98 line or 0.25 μg/mL 2-(2-furyl)-3-(5-nitro-2-furyl)acrylamide solution in DMSO as a positive control for TA 100 line in the case of a non-metabolism-activation condition; 12 μL of 40 μg/mL 2-aminoanthracene solution in DMSO for TA98 line or 20 μg/mL of 2-aminoanthracene solution in DMSO for TA100 line in the case of a metabolism-activation condition; were each mixed with 588 μL of the test bacterial suspension (in the case of a metabolism activation condition, a mixed solution of 498 μL of the test bacterial suspension and 90 μL S9 mix) and then cultured at 37° C. at 90 minutes with shaking. 460 μL of the bacterial suspension to which a test substance was exposed was mixed with 230 μL of Indicator media (a Micro F buffer solution containing 8 μg/mL biotin, 0.2 μg/mL histidine, 8 mg/mL glucose, and 37.5 μg/mL bromocresol purple). 50 μL thereof was dispensed to microplate 48 wells/dose and then statically cultured at 37° C. for 3 days. In a well containing bacteria which obtained proliferation potency by mutation of the amino acid (histidine) synthetase gene, the change of pH caused the color change from purple to yellow. Thus, in 48 wells per dose, the number of the bacteria-proliferation wells in which the color changed to yellow was counted, compared with a group of negative controls, and then evaluated. When the mutagenicity is negative, the compound is shown as (−). When positive, the compound is shown as (+).
# [4] = target: T1, PI-3 kinase γ; test: PI3Kγ inhibitory activity (Ki value), HTRF; assay type: biochemical; conditions: Ki=IC50/(1+10 μM ATP/Km)
# Experimental: The PI3Kγ inhibitory activity (Ki value) of a compound was evaluated according to the following procedure:
# 5 μL of a compound solution containing 10% DMSO and 200 μmol/L of a compound was changed to 5 μL of a compound solution containing 10% DMSO and either 200, 64, 20, 6.4, 2, 0.64, or 0.20 μmol/L of the compound (optionally, this is diluted to a lower concentration). Using a method similar to the method for measuring PI3Kγ inhibitory activity, inhibition ratios were measured in the presence of the compound at 50, 16, 5, 1.6, 0.5, 0.16, and 0.05 μmol/L (optionally, a lower concentration). Then an IC50 value was calculated by a logistic approximation method or the linear regression method using two concentrations that across 50% inhibition. Separately, the ATP concentration in the reaction solution (40 μmol/L ATP, 10 mmol/L MgCl2, 5 mmol/L DTT) at the time of the start of a reaction in the absence of the compound was changed to 80, 40, 20, 10, 5, 2.5, 1.25, or 0.625 μmol/L. Then, HTRF ratios were measured by a similar method. The value obtained by subtracting the HTRF ratio at each ATP concentration from the HTRF ratio in the absence of PI-3 kinase γ was defined as the value obtained by multiplying reaction rate (v) at each ATP concentration with a constant. The Michaelis-Menten constant Km was then calculated by the Lineweaver-Burk plot method. The Ki value of a compound was calculated by the following formula.
# Ki=IC50 value/(1+10 μM (test ATP concentration)/Km (μM))
# T1 sequence (P48736 whole entry): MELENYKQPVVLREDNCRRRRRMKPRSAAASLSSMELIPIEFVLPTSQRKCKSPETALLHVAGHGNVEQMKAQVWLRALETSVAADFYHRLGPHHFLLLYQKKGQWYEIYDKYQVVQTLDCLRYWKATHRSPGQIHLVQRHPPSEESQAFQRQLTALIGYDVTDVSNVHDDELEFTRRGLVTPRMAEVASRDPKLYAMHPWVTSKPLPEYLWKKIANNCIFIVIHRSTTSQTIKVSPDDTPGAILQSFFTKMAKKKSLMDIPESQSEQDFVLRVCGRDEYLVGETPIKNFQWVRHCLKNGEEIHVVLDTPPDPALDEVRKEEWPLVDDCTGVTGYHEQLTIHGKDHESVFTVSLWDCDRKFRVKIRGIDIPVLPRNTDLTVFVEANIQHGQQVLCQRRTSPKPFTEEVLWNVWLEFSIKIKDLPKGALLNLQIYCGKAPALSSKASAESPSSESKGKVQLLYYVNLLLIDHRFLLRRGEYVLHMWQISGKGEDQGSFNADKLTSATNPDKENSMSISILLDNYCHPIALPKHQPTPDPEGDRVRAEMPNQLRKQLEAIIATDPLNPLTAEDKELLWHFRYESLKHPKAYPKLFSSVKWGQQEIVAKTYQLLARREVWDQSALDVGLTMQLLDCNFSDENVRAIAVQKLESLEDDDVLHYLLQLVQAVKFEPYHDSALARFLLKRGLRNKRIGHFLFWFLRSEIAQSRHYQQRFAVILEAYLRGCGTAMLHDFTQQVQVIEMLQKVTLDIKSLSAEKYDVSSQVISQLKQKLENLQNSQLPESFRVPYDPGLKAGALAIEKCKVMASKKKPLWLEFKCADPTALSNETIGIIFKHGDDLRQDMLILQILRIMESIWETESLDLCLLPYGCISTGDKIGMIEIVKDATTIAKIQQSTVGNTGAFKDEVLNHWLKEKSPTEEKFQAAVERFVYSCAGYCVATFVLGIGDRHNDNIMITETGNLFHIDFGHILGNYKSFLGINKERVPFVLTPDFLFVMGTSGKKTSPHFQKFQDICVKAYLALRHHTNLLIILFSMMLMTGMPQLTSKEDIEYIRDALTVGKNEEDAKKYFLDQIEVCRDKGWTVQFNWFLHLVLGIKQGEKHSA
structure (smiles),measurement,setting,value
COc1cc(N2CCc3nc(NC(=O)NCCC(=O)N4CCCCC4)sc3C2)nc(OC)n1 [Compound I-266],inhibition at 10 µM,[1],≥ 95%
same,inhibition,[2],> 99.5%
same,mutagenicity (FAT test),[3],(−)
same,Ki,[4],0.036 µM
